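Protocol summary: plate cells (96-well), add compound at 5 concentrations, incubate 48 h, interpolate endpoints linearly. Here, GI50 denotes the concentration required for 50% inhibition of growth. TGI: total growth inhibition.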
Experiments:
Experiment in all cases: NCI tumour cell line growth inhibition, 48 h
UACC-257 melanoma = test system: UACC-257 melanoma
OVCAR-8 ovarian = test system: OVCAR-8 ovarian
HOP-92 NSCLC = test system: HOP-92 NSCLC
SK-MEL-28 melanoma = test system: SK-MEL-28 melanoma
A498 renal = test system: A498 renal
OVCAR-5 ovarian = test system: OVCAR-5 ovarian
NCI-H226 lung = test system: NCI-H226 lung
SK-OV-3 ovarian = test system: SK-OV-3 ovarian
HCT-116 colon = test system: HCT-116 colon
EKVX NSCLC = test system: EKVX NSCLC
ACHN renal = test system: ACHN renal
SF-268 CNS = test system: SF-268 CNS
SN12C renal = test system: SN12C renal
MALME-3M melanoma = test system: MALME-3M melanoma
SNB-19 CNS = test system: SNB-19 CNS
HT29 colon = test system: HT29 colon
HL-60(TB) leukemia = test system: HL-60(TB) leukemia
UACC-62 melanoma = test system: UACC-62 melanoma
TK-10 renal = test system: TK-10 renal
RXF 393 renal = test system: RXF 393 renal
M14 melanoma = test system: M14 melanoma
MCF7 breast = test system: MCF7 breast
CAKI-1 renal = test system: CAKI-1 renal
T-47D breast = test system: T-47D breast
HS 578T breast = test system: HS 578T breast
HCC-2998 colon = test system: HCC-2998 colon
OVCAR-4 ovarian = test system: OVCAR-4 ovarian
MDA-MB-435 = test system: MDA-MB-435

Structure (SMILES): CC(=O)OCc1cnc2c3c(nc4ccccc4c13)C(=O)c1cccnc1-2
- GI50 (UACC-257 melanoma): 253 nM
- TGI (UACC-257 melanoma): 849 nM
- GI50 (OVCAR-8 ovarian): 11.5 nM
- TGI (OVCAR-8 ovarian): 109 nM
- GI50 (HOP-92 NSCLC): 104 nM
- TGI (HOP-92 NSCLC): 2770 nM
- GI50 (SK-MEL-28 melanoma): 174 nM
- TGI (SK-MEL-28 melanoma): 614 nM
- GI50 (A498 renal): 162 nM
- TGI (A498 renal): 790 nM
- GI50 (OVCAR-5 ovarian): 435 nM
- TGI (OVCAR-5 ovarian): 2230 nM
- GI50 (NCI-H226 lung): < 15 nM
- TGI (NCI-H226 lung): 121 nM
- GI50 (SK-OV-3 ovarian): 50 nM
- TGI (SK-OV-3 ovarian): 874 nM
- GI50 (HCT-116 colon): < 10 nM
- TGI (HCT-116 colon): 27 nM
- GI50 (EKVX NSCLC): 187 nM
- TGI (EKVX NSCLC): 2600 nM
- GI50 (ACHN renal): < 10 nM
- GI50 (SF-268 CNS): 34.1 nM
- TGI (SF-268 CNS): 1010 nM
- GI50 (SN12C renal): 22.1 nM
- TGI (SN12C renal): 318 nM
- GI50 (MALME-3M melanoma): 22 nM
- TGI (MALME-3M melanoma): 205 nM
- GI50 (SNB-19 CNS): 42.4 nM
- TGI (SNB-19 CNS): 959 nM
- GI50 (HT29 colon): 193 nM
- TGI (HT29 colon): 634 nM
- GI50 (HL-60(TB) leukemia): 20.6 nM
- GI50 (UACC-62 melanoma): 135 nM
- TGI (UACC-62 melanoma): 403 nM
- GI50 (TK-10 renal): 57.3 nM
- TGI (TK-10 renal): 420 nM
- GI50 (RXF 393 renal): < 34.3 nM
- TGI (RXF 393 renal): 841 nM
- GI50 (M14 melanoma): 25.5 nM
- TGI (M14 melanoma): 125 nM
- GI50 (MCF7 breast): < 11.8 nM
- TGI (MCF7 breast): 90.4 nM
- GI50 (CAKI-1 renal): < 10 nM
- TGI (CAKI-1 renal): 150 nM
- GI50 (T-47D breast): 827 nM
- TGI (T-47D breast): 10500 nM
- GI50 (HS 578T breast): 271 nM
- TGI (HS 578T breast): 1330 nM
- GI50 (HCC-2998 colon): 102 nM
- TGI (HCC-2998 colon): 535 nM
- GI50 (OVCAR-4 ovarian): 32.9 nM
- TGI (OVCAR-4 ovarian): 390 nM
- GI50 (MDA-MB-435): 120 nM
- TGI (MDA-MB-435): 527 nM

Source: PubChem BioAssay (NCI)
